Laboratory results as given in patent US6350776B1, “Method of treating proliferative disease with lycopene and alpha-tocopherol” (priority 1999, dated 2002).

Legend:
[1] = system: Prostate cancer cells (DU-145); experiment: Cell proliferation assay (cell count), DU-145; format: cell-based, human; conditions: for potentiation of the anti-proliferative effect of lycopene: DU-145, 50 μM of the compound with 1 μM lycopene (FIG. 3)
Procedure: (§1) Culture media and antibiotics were from Gibco (Grand Island, N.Y., USA). Fetal calf serum was from PAA Labor (Linz, Austria), Human prostate carcinoma, androgen insensitive, cell lines DU-145 and PC-3, colon carcinoma cell line Caco-2, hepatoma cell line HepG2, and rat aortic smooth muscle cell line A7r5 were from American Type Culture Collection (Rockville, Md., USA). DU-146 cells were grown in minimum essential medium (EM), PC-3 cells in F-12K medium, both containing antibiotics and 10% fetal calf serum (FCS). Caco-2 cells were grown in MEM containing 20% FCS. HepG2 cells were grown in MEM containing 10% FCS, and A7r5 cells were grown in DMEM containing 10% FCS. Cell proliferation was assayed using two methods, cell count and thymidine incorporation: Cell count. Cells were seeded into 6-multiwell plates (20,000 cells/well). When cells reached approximately 50% confluence, the indicated concentrations of the compounds were added. THF was added to control cells to account for the effect of the solvent in the compound solutions. Cells were washed, trypsinized, resuspended and counted in duplicate at the indicated times by trypan blue dye exclusion with a hemocytometer. […] The values in Table 1 are expressed as percent of inhibition of proliferation as compared to proliferation of control cells treated with solvent alone. Prostate cancer cells (DU-145), hepatoma cells (HepG2), colon carcinoma cells (Caco-2) and rat aortic smooth muscle cells (A7r5) were treated with different concentrations of lycopene as indicated and 50 μM alpha-tocopherol for 24 hours. […] Proliferation was assessed as indicated in the Materials and Methods. Data are means±SD of five experiments in duplicate.

hepatoma cells (HepG2) = experiment: Cell proliferation assay (thymidine incorporation), HepG2; format: cell-based, human; conditions: 50 μM alpha-tocopherol, lycopene 0 μM, 24 hours, vs solvent control
Procedure: (§2) Culture media and antibiotics were from Gibco (Grand Island, N.Y., USA). Fetal calf serum was from PAA Labor (Linz, Austria), Human prostate carcinoma, androgen insensitive, cell lines DU-145 and PC-3, colon carcinoma cell line Caco-2, hepatoma cell line HepG2, and rat aortic smooth muscle cell line A7r5 were from American Type Culture Collection (Rockville, Md., USA). DU-146 cells were grown in minimum essential medium (EM), PC-3 cells in F-12K medium, both containing antibiotics and 10% fetal calf serum (FCS). Caco-2 cells were grown in MEM containing 20% FCS. HepG2 cells were grown in MEM containing 10% FCS, and A7r5 cells were grown in DMEM containing 10% FCS.
(§3) Cell proliferation was assayed using two methods, cell count and thymidine incorporation:
(§4) Thymidine incorporation. Colon carcinoma cells (Caco-2) and hepatoma cells (HepG2) seeded into 6 multiwell plates (30,000 cells/well) after treatment were pulsed with [^3H] thymidine (0.5 μCi per well) for two hours. […] The radioactivity incorporated into the acid-insoluble material was determined in a liquid scintillation analyzer.
(§5) The values in Table 1 are expressed as percent of inhibition of proliferation as compared to proliferation of control cells treated with solvent alone. […] Proliferation was assessed as indicated in the Materials and Methods. […]

[2] = system: colon carcinoma cells (Caco-2); experiment: Cell proliferation assay (thymidine incorporation), Caco-2; format: cell-based, human; conditions: 50 μM alpha-tocopherol, lycopene 0 μM, 24 hours, vs solvent control
Procedure: as §2, §3, §4, §5

[3] = system: rat aortic smooth muscle cells (A7r5); experiment: Cell proliferation assay (cell count), A7r5; format: cell-based; conditions: 50 μM alpha-tocopherol, lycopene 0 μM, 24 hours, vs solvent control
Procedure: as §1, with “alone.” for “alone. Prostate cancer cells (DU-145), hepatoma cells (HepG2), colon carcinoma cells (Caco-2) and rat aortic smooth muscle cells (A7r5) were treated with different concentrations of lycopene as indicated and 50 μM alpha-tocopherol for 24 hours.”, “Data are means±SD of five experiments in duplicate.” left out

[4] = system: prostate carcinoma cell proliferation; conditions: in vitro studies, background; cited from earlier work

Question: With CC(C)(Sc1cc(C(C)(C)C)c(O)c(C(C)(C)C)c1)Sc1cc(C(C)(C)C)c(O)c(C(C)(C)C)c1 [probucol] as the molecule, how does the “potentiation of the anti-proliferative effect of lycopene” value (“potentiation” for short) [1] read?
Answer: Its value is “this effect is specific to alpha-tocopherol as compared to other anti-oxidants”.

Question: Which “percent of inhibition of proliferation” value ([1]; DU 145, 50 μM alpha-tocopherol, lycopene 0 μM, 24 hours, vs solvent control) does the source give for Cc1c(C)c2c(c(C)c1O)CCC(C)(CCCC(C)CCCC(C)CCCC(C)C)O2 (racemic) [Alpha-Tocopherol, DL-alpha-tocopherol] here?
Answer: The value was 40 ± 6%.

Question: And the “potentiation” value [1]?
Answer: Its value is “potentiates the anti-proliferative effect of lycopene”.

Question: What about the “percent of inhibition of proliferation” value (hepatoma cells (HepG2)) of the same molecule?
Answer: Its value is 5 ± 1%.

Question: What about the “percent of inhibition of proliferation” value [2] of the same molecule?
Answer: Its value is 25 ± 3%.

Question: And the “percent of inhibition of proliferation” value [3]?
Answer: The value was 40 ± 5%.

Question: Which “concentrations with inhibitory effect on prostate carcinoma cell proliferation” value [4] does the source give for CC(C)=CCC/C(C)=C/C=C/C(C)=C/C=C/C(C)=C/C=C/C=C(C)/C=C/C=C(C)/C=C/C=C(\C)CCC=C(C)C [lycopene] here?
Answer: Its value is at least 50 µM.

Question: With O=C1O[C@H]([C@@H](O)CO)C(O)=C1O [ascorbic acid, L-ascorbic acid] as the molecule, how does the “potentiation” value [1] read?
Answer: Its value is “this effect is specific to alpha-tocopherol as compared to other anti-oxidants”.

Question: With Cc1cc(O)c(C)c2c1O[C@](C)(CCC[C@H](C)CCC[C@H](C)CCCC(C)C)CC2 (racemic) [β-tocopherol, DL-β-tocopherol] as the molecule, how does the “potentiation” value [1] read?
Answer: Its value is “this effect is specific to alpha-tocopherol as compared to other anti-oxidants”.
